Laboratory results published in ChEMBL document CHEMBL1201862, “PubChem BioAssay data set” (2004).
“And” between values parts separate entries of the source, which are not always exact repeats. Equal values may be shown once.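 Dose response: 5 concentrations. Exposure: 48 h. Format: 96-well plates. Endpoint: linear interpolation; highest concentration if not reached. GI50 is the concentration that inhibits growth by half.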 The source made the active and inactive calls. Rule as the data show it: active = GI50 up to about 1.1 µM and inactive = higher.

How the values were obtained:
Test in all cases: NCI anticancer screen, dose series, 48 h
786-0 = tested on: 786-0
A498 = tested on: A498
A549 = tested on: A549
ACHN = tested on: ACHN
BT-549 = tested on: BT-549
CAKI-1 = tested on: CAKI-1
CCRF-CEM = tested on: CCRF-CEM
COLO 205 = tested on: COLO 205
DU-145 = tested on: DU-145
EKVX = tested on: EKVX
HCC 2998 = tested on: HCC 2998
HCT-116 = tested on: HCT-116
HCT-15 = tested on: HCT-15
HL-60 = tested on: HL-60
HOP-62 = tested on: HOP-62
HOP-92 = tested on: HOP-92
HT-29 = tested on: HT-29
Hs-578T = tested on: Hs-578T
IGROV-1 = tested on: IGROV-1
K562 = tested on: K562
KM12 = tested on: KM12
LOX IMVI = tested on: LOX IMVI
M14 = tested on: M14
MCF7 = tested on: MCF7
MDA-MB-231 = tested on: MDA-MB-231
MOLT-4 = tested on: MOLT-4
Malme-3M = tested on: Malme-3M
NCI-H226 = tested on: NCI-H226
NCI-H23 = tested on: NCI-H23
NCI-H460 = tested on: NCI-H460
NCI-H522 = tested on: NCI-H522
NCI/ADR-RES = tested on: NCI/ADR-RES
OVCAR-3 = tested on: OVCAR-3
OVCAR-4 = tested on: OVCAR-4
OVCAR-5 = tested on: OVCAR-5
OVCAR-8 = tested on: OVCAR-8
PC-3 = tested on: PC-3
RPMI-8226 = tested on: RPMI-8226
RXF 393 = tested on: RXF 393
SF-268 = tested on: SF-268
SF-295 = tested on: SF-295
SF-539 = tested on: SF-539
SK-MEL-28 = tested on: SK-MEL-28
SK-MEL-2 = tested on: SK-MEL-2
SK-MEL-5 = tested on: SK-MEL-5
SK-OV-3 = tested on: SK-OV-3
SN12C = tested on: SN12C
SNB-19 = tested on: SNB-19
SNB-75 = tested on: SNB-75
SR = tested on: SR
SW-620 = tested on: SW-620
T47D = tested on: T47D
TK-10 = tested on: TK-10
U-251 = tested on: U-251
UACC-257 = tested on: UACC-257
UACC-62 = tested on: UACC-62
UO-31 = tested on: UO-31
MDA-MB-435 = tested on: MDA-MB-435
MDA-N = tested on: MDA-N

Measured: GI50

COc1cc(C2c3[nH]c4ccc(F)cc4c3C[C@H]3COC(=O)N23)cc(OC)c1O (stereo not given in full)
active: SR 0.47 µM
inactive: 786-0 11.6 µM | A498 6.71 µM | A549 6.65 µM | ACHN 5.79 µM | BT-549 43.2 µM | CAKI-1 11 µM | CCRF-CEM 6.89 µM | COLO 205 4.18 µM | DU-145 15.9 µM | EKVX 24 µM | HCC 2998 14.1 µM | HCT-116 5.78 µM | HL-60 7.71 µM | HOP-62 5.71 µM | HOP-92 15.8 µM | HT-29 7.55 µM | Hs-578T 2.85 µM | IGROV-1 13.2 µM | K562 14.8 µM | KM12 12.3 µM | LOX IMVI 5.43 µM | M14 17 µM | MCF7 3.33 µM | MDA-MB-231 22.1 µM | MOLT-4 3.73 µM | Malme-3M 14.7 µM | NCI-H226 10.4 µM | NCI-H23 4.11 µM | NCI-H460 4.36 µM | NCI-H522 15 µM | NCI/ADR-RES 4.93 µM | OVCAR-3 13.4 µM | OVCAR-4 16.2 µM | OVCAR-5 18.8 µM | OVCAR-8 10.1 µM | PC-3 9.16 µM | RPMI-8226 96.6 µM | RXF 393 3.29 µM | SF-268 11.5 µM | SF-295 12.1 µM | SF-539 2.93 µM | SK-MEL-28 7.96 µM | SK-MEL-2 26.2 µM | SK-MEL-5 10.7 µM | SK-OV-3 15.5 µM | SN12C 13.5 µM | SNB-19 21.3 µM | SNB-75 2.29 µM | SW-620 9.46 µM | T47D 32.5 µM | TK-10 > 10 µM | U-251 6.47 µM | UACC-257 11.1 µM | UACC-62 12.1 µM | UO-31 12.6 µM
8.69 µM: HCT-15

CC(C)(C)C(=O)N1CCN(C=O)C1=S
inactive: 786-0 36.7 µM | A498 18.7 µM | A549 27.5 µM | ACHN 57.9 µM | BT-549 46.2 µM | CAKI-1 34.6 µM | CCRF-CEM 29.8 µM | COLO 205 > 100 µM | DU-145 33.5 µM | EKVX > 100 µM | HCC 2998 64.9 µM | HCT-116 > 100 µM | HL-60 47.3 µM | HOP-62 > 100 µM | HOP-92 16.8 µM | HT-29 > 100 µM | Hs-578T 58.5 µM | IGROV-1 47.3 µM | K562 35.2 µM | KM12 75.9 µM | LOX IMVI 34.2 µM | M14 31 µM | MCF7 15.6 µM | MDA-MB-231 > 100 µM | MDA-MB-435 35.9 µM | MOLT-4 61.5 µM | Malme-3M 61.4 µM | NCI-H226 > 100 µM | NCI-H23 77.3 µM | NCI-H460 > 100 µM | NCI-H522 26.8 µM | NCI/ADR-RES > 100 µM | OVCAR-3 38.2 µM | OVCAR-4 > 100 µM | OVCAR-5 > 100 µM | OVCAR-8 36.5 µM | PC-3 > 100 µM | RPMI-8226 24.8 µM | RXF 393 24.6 µM | SF-268 80.4 µM | SF-295 > 100 µM | SF-539 > 100 µM | SK-MEL-28 50.4 µM | SK-MEL-2 > 100 µM | SK-OV-3 > 100 µM | SN12C 36.8 µM | SNB-19 > 100 µM | SNB-75 30.1 µM | SW-620 44.9 µM | T47D 34 µM | TK-10 92 µM | U-251 80.7 µM | UACC-257 62.7 µM | UACC-62 32.1 µM
active: UO-31 0.0693 µM
53.2 µM: HCT-15

O/N=C/C1C(OCc2ccccc2)C(OCc2ccccc2)C(OCc2ccccc2)CN1Cc1ccccc1 (stereo not given)
inactive: 786-0 8.99 µM and 5.94 µM | A498 5.2 µM | A549 4.44 µM and 7.87 µM | BT-549 15.3 µM | CAKI-1 2.74 µM | CCRF-CEM 3.37 µM and 3.65 µM | DU-145 35.2 µM and 60.4 µM | EKVX 41.2 µM | HCC 2998 7.48 µM | HCT-116 3.89 µM and 4.97 µM | HL-60 13.1 µM | IGROV-1 22.1 µM and 34 µM | K562 3.82 µM and 4.53 µM | LOX IMVI 10.6 µM and 6 µM | MDA-MB-231 4.15 µM | MDA-N 16 µM and 12.4 µM | MOLT-4 2.77 µM and 1.52 µM | NCI-H522 9.55 µM | OVCAR-4 6.41 µM | OVCAR-8 16 µM and 13.1 µM | RPMI-8226 22.6 µM | RXF 393 3.51 µM | SF-268 16.7 µM and > 10 µM | SF-295 6.15 µM and 10.7 µM | SF-539 7.26 µM | SK-MEL-28 14.3 µM and 15.2 µM | SK-MEL-2 19.6 µM | SK-MEL-5 11.7 µM | SNB-19 29.4 µM and 38.8 µM | SW-620 5.41 µM and 10.2 µM | T47D 5.26 µM | U-251 9.16 µM and 15.5 µM | UACC-62 13.9 µM and 18.7 µM

CC(C)(C)n1nc(C2CC2)cc1NC(=O)Nc1ccc(Cl)cc1
> 100 µM: HCT-15
inactive: 786-0 > 100 µM | A498 > 100 µM | A549 > 100 µM | ACHN > 100 µM | BT-549 > 100 µM | CAKI-1 > 100 µM | COLO 205 > 100 µM | DU-145 > 100 µM | EKVX > 100 µM | HCC 2998 > 100 µM | HCT-116 > 100 µM | HL-60 > 100 µM | HOP-62 > 100 µM | HOP-92 > 100 µM | HT-29 > 100 µM | Hs-578T > 100 µM | IGROV-1 > 100 µM | K562 > 100 µM | KM12 > 100 µM | LOX IMVI > 100 µM | M14 > 100 µM | MCF7 > 100 µM | MDA-MB-231 > 100 µM | MDA-MB-435 > 100 µM | MOLT-4 > 100 µM | Malme-3M > 100 µM | NCI-H226 > 100 µM | NCI-H23 > 100 µM | NCI-H460 > 100 µM | NCI-H522 > 100 µM | NCI/ADR-RES > 100 µM | OVCAR-3 > 100 µM | OVCAR-4 > 100 µM | OVCAR-5 > 100 µM | OVCAR-8 > 100 µM | PC-3 > 100 µM | RPMI-8226 > 100 µM | RXF 393 > 100 µM | SF-268 > 100 µM | SF-295 > 100 µM | SF-539 > 100 µM | SK-MEL-28 > 100 µM | SK-MEL-2 > 100 µM | SK-MEL-5 > 100 µM | SK-OV-3 > 100 µM | SN12C > 100 µM | SNB-19 > 100 µM | SNB-75 78 µM | SW-620 > 100 µM | T47D > 100 µM | TK-10 > 100 µM | U-251 > 100 µM | UACC-257 > 100 µM | UACC-62 > 100 µM | UO-31 > 100 µM

Cc1cc(C)c(/C=C(\C(=C/c2c(C)cc(C)cc2C)[N+](=O)[O-])[N+](=O)[O-])c(C)c1
inactive: A549 > 100 µM | ACHN > 100 µM | BT-549 > 100 µM | CAKI-1 > 100 µM | CCRF-CEM 41.6 µM | COLO 205 > 100 µM | DU-145 > 100 µM | EKVX > 100 µM | HCC 2998 > 100 µM | HCT-116 > 100 µM | HOP-62 > 100 µM | HOP-92 > 100 µM | HT-29 > 100 µM | IGROV-1 > 100 µM | K562 > 100 µM | KM12 > 100 µM | LOX IMVI 43.4 µM | M14 > 100 µM | MCF7 58.9 µM | MDA-MB-231 > 100 µM | MDA-MB-435 > 100 µM | MDA-N > 100 µM | MOLT-4 32.7 µM | NCI-H23 > 100 µM | NCI-H460 46.7 µM | OVCAR-3 > 100 µM | OVCAR-4 > 100 µM | OVCAR-5 > 100 µM | PC-3 > 100 µM | RPMI-8226 1.31 µM | RXF 393 20.6 µM | SF-295 > 100 µM | SF-539 > 100 µM | SK-MEL-28 > 100 µM | SK-MEL-2 > 100 µM | SK-MEL-5 86.5 µM | SK-OV-3 > 100 µM | SN12C > 100 µM | SNB-19 > 100 µM | SNB-75 > 100 µM | SR 30.4 µM | SW-620 > 100 µM | T47D 78.9 µM | TK-10 > 100 µM | U-251 > 100 µM | UACC-257 > 100 µM | UACC-62 > 100 µM | UO-31 > 100 µM
